In the test the test system is carrageenan-induced oedema in Wistar rats. The test can be described thus: Inhibition of carrageenan-induced oedema in Wistar rats 3 hours after oral administration. It is filed as in vivo. The settings on record: p.o.; for Oedema inhibition: N=10, 3 hours after administration; for ED50: Rattus norvegicus, calculated from results 3 hours after oral administration, 2 hours after carrageenan. How it is done: (Inhibition of carrageenan-induced oedema)
The method followed was that described by Winter et al. (Proc. Soc. Exp. Biol. Med. […]; 111; 544-547).
Inhibition of carrageenan-induced oedema in Wistar rats 3 hours after administration of the product: […]

The text below walks through data of patent US5132304A, “Benzothiazine derivatives and their applications as medicinal products or as synthesis intermediates for medicinal products” (Laboratorios Del Dr. Esteve, S. A., priority 1989, dated 1992).

The ED50 is the dose that gives a 50% effect, or the effect in half of the subjects.

Molecules are shown by their SMILES.

For `CCOC(=O)OC1=C(C(=O)N(C(=O)OCC)c2ccccn2)N(C)S(=O)(=O)c2ccccc21` [Example 1, N-ethoxycarbonyl-N-(2-pyridyl)-4-ethoxy-carbonyloxy-2-methyl-2H-1,2-benzothiazine-3-carboxamide 1,1-dioxide], the 50% effective dose (ED50) was 5.6 mg/kg. Besides, the Oedema inhibition (2.5 mg/kg) is listed as 33.8%. The Oedema inhibition (5 mg/kg) was found to be 54.3%. For the same molecule, for the setting “10 mg/kg”, the Oedema inhibition was 63.8%. Where the note is “40 mg/kg”, the Oedema inhibition is reported as 65.5%.
With `CCCCC1C(=O)N(c2ccccc2)N(c2ccccc2)C1=O` [Phenylbutazone, phenylbutazone, reference compound], the ED50 is 19.6 mg/kg. In addition, under “12.5 mg/kg”, the Oedema inhibition stood at 46.6%. The molecule also had an Oedema inhibition (25 mg/kg) of 52.1%.
